Here are results for 14 compounds from BindingDB's records for patent US10626112 (Ea Pharma, 2020).

In the experiment the target is Transient receptor potential cation channel subfamily A member 1 (Homo sapiens, UniProt O75762). In words: Measurement of TRPA1 Antagonist Activity. On the procedure: The test substance was dissolved in dimethyl sulfoxide and serially diluted with an assay buffer containing 0.1% bovine serum albumin (1×HBSS, 20 mM HEPES, pH 7.2) to a 4.8-fold concentration of the evaluation concentration. Allylisothiocyanate, which is a known TRPA1 activator, was dissolved in dimethyl sulfoxide to 100 mM, and further diluted 5-fold (100 μM) of the final concentration, like the test substance.
Sequence of Transient receptor potential cation channel subfamily A member 1 (O75762 whole entry): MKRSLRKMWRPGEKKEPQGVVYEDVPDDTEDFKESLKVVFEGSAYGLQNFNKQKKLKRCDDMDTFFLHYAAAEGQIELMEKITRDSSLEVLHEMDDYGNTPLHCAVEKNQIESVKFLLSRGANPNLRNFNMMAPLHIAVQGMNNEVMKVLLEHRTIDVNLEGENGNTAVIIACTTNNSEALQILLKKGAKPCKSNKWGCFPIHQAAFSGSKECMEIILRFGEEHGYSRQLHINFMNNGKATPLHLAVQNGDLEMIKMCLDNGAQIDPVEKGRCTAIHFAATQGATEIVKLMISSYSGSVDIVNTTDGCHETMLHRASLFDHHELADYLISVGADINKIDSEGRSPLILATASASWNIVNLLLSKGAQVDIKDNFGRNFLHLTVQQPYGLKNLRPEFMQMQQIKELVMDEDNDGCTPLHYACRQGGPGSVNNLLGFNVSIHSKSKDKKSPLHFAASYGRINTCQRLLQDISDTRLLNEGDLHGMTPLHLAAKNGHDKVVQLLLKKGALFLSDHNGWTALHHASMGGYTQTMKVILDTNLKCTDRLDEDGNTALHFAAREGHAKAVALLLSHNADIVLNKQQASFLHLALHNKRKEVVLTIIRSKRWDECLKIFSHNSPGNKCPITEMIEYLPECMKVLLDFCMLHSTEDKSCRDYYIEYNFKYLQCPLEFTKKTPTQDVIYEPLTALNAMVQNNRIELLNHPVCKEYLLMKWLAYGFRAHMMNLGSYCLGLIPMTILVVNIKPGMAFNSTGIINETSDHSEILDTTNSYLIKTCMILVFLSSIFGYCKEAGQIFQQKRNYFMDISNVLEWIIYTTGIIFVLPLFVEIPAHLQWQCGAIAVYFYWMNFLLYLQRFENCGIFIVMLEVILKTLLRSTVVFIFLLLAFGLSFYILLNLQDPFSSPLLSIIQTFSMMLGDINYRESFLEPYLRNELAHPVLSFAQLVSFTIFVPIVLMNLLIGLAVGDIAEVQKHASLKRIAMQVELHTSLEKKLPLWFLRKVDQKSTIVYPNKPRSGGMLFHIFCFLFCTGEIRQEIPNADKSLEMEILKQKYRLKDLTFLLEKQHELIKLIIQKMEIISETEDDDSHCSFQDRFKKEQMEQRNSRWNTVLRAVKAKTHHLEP
Regarding `O=C(NCc1ccnc(-c2ccc(COCC(F)(F)F)nc2)c1)[C@@H]1CCCN1S(=O)(=O)c1cc2ccccc2o1` [US10626112, Example 331], 170 nM corresponded to half-maximal inhibition (IC50). On to `O=C(CN(Cc1ncco1)S(=O)(=O)c1cc2cc(F)ccc2o1)NCc1cc(-c2ccc(C(F)(F)F)cn2)ccn1` [US10626112, Example 351], for which half-maximal inhibition (IC50) was put at 990 nM. Consider `O=C(CN(Cc1ncco1)S(=O)(=O)c1cc2cc(F)ccc2o1)NCc1cc(-c2ccc(C(F)(F)F)cc2)ncn1` [US10626112, Example 354], for which the IC50 (in general, the concentration needed to halve the response being measured) is 380 nM. In the case of `O=C(NCc1cccc(CSc2ccc(C(F)(F)F)cc2)c1)[C@@H]1CCCN1S(=O)(=O)c1cc2ccccc2o1` [US10626112, Example 299] it was 24 nM; in that of `CC(C)OCCN(CC(=O)NCc1cc(-c2ccc(C(F)(F)F)cn2)ccn1)S(=O)(=O)c1cc2cc(F)ccc2o1` [US10626112, Example 356], 190 nM. With `O=C(NCc1cc(-c2ccc(C(F)(F)F)cc2)ncn1)[C@@H]1CCCN1S(=O)(=O)c1cc2ccncc2o1` [US10626112, Example 347], the concentration for half-maximal inhibition (IC50) came to 74 nM. Consider `CC(C)(C)OC[C@H](NS(=O)(=O)c1cc2cc(F)ccc2o1)C(=O)NCc1cc(-c2ccc(C(F)(F)F)cc2)ncn1` [US10626112, Example 415], for which it took 410 nM to reach half-maximal inhibition (IC50). The compound `CC(C)OCCN(CC(=O)NCc1cc(-c2ccc(C(F)(F)F)cc2)ncn1)S(=O)(=O)c1cc2cc(F)ccc2o1` [US10626112, Example 358] had a concentration for half-maximal inhibition (IC50) of 110 nM.

In turn, `COCCN(CC(=O)NCc1cc(-c2ccc(C(F)(F)F)cn2)ccn1)S(=O)(=O)c1cc2cc(F)ccc2o1` [US10626112, Example 355] displayed a half-maximal inhibitory concentration (IC50) of 100 nM. In the case of `O=C(NCc1cccc(OCc2ccc(N3CCOCC3)nc2)c1)[C@@H]1CCCN1S(=O)(=O)c1cc2cc(F)ccc2o1` [US10626112, Example 22] it was 110 nM; in that of `O=C(CN(Cc1ccccc1)S(=O)(=O)c1cc2cc(F)ccc2o1)NCc1cc(-c2ccc(C(F)(F)F)cn2)ccn1` [US10626112, Example 350], 630 nM.

`O=C(CN(Cc1cnccn1)S(=O)(=O)c1cc2cc(F)ccc2o1)NCc1cc(-c2ccc(C(F)(F)F)cc2)ncn1` [US10626112, Example 361] registered a concentration for half-maximal inhibition (IC50) of 470 nM. Turning to `O=C(CN(CC1CCNC1)S(=O)(=O)c1cc2cc(F)ccc2o1)NCc1cc(-c2ccc(C(F)(F)F)cc2)ncn1` (centres undefined) [US10626112, Example 425], the half-inhibitory concentration (IC50) worked out at 190 nM. `O=C(CN(Cc1ccccc1)S(=O)(=O)c1cc2cc(F)ccc2o1)NCc1cc(-c2ccc(C(F)(F)F)cc2)ncn1` [US10626112, Example 352] gave an IC50 of 410 nM.
